We go through eight molecules from PubChem BioAssay (NCI).

Test systems include OVCAR-5 ovarian; HCT-116 colon; SR leukemia; M14 melanoma; OVCAR-4 ovarian; MCF7 breast; DU-145 prostate; SK-OV-3 ovarian; SF-539 CNS; NCI-H460 lung.
Holding throughout (test): NCI-60 cell line screen, 48 h

Structures are written as SMILES.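 Five compound concentrations were applied to cells in 96-well plates for 48 hours; endpoints were derived by simple linear interpolation of the resulting dose-response curve. At the GI50, growth is halved. TGI: concentration producing complete growth inhibition.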 Where only a bound is given, the exact number is not on record here.

As for `NS(=O)(=O)OCC1OC(n2cnc3cncnc32)C(O)C1O` (centres undefined), the GI50 is under 0.0114 µM in the assay on OVCAR-5 ovarian; 0.0157 µM with HCT-116 colon; 0.0153 µM in the assay on SR leukemia; 0.03 µM with M14 melanoma; 0.0103 µM in the assay with OVCAR-4 ovarian; 0.0185 µM in the assay on MCF7 breast. In addition, the GI50 in the assay with DU-145 prostate is 0.0178 µM; in the assay on SK-OV-3 ovarian, 0.0343 µM; in the assay on SF-539 CNS, 0.0206 µM; in the assay on NCI-H460 lung, 0.024 µM. Further, the TGI is 0.0747 µM in the assay on OVCAR-5 ovarian; 0.033 µM in the assay on HCT-116 colon; 21.6 µM with SR leukemia; 0.0944 µM in the assay on M14 melanoma; 0.0745 µM in the assay with OVCAR-4 ovarian; 0.0806 µM in the assay on MCF7 breast. The TGI in the assay with DU-145 prostate was 0.132 µM; in the assay with SK-OV-3 ovarian, 0.137 µM; in the assay on SF-539 CNS, 0.0467 µM; in the assay with NCI-H460 lung it was 0.0762 µM.
For `COc1c(O)c(OC)c2oc(-c3ccc(O)c(O)c3)c(OC)c(=O)c2c1O`, the TGI in the assay on OVCAR-5 ovarian is over 100 µM; with HCT-116 colon, over 100 µM; with SR leukemia, over 100 µM; in the assay on M14 melanoma, 50.7 µM; in the assay on OVCAR-4 ovarian it was over 100 µM; in the assay with MCF7 breast, 34 µM. Also, the TGI in the assay on DU-145 prostate was 98.8 µM; in the assay on SK-OV-3 ovarian, 54.4 µM; with SF-539 CNS, over 100 µM; with NCI-H460 lung it was over 100 µM.
With `CCOC(=O)c1ccc(Nc2sc(C(=O)c3ccc(Br)cc3)c(N)c2C#N)cc1`, the GI50 in the assay on OVCAR-5 ovarian was 5.66 µM; with HCT-116 colon, 0.732 µM; with SR leukemia, 0.658 µM; in the assay with M14 melanoma, 1.27 µM; in the assay on MCF7 breast, 0.655 µM; in the assay with DU-145 prostate, 1.8 µM. For the same molecule, the GI50 with SK-OV-3 ovarian was 1.04 µM; in the assay with SF-539 CNS, 1.07 µM; with NCI-H460 lung, 0.924 µM. In addition, the TGI with OVCAR-5 ovarian was over 100 µM; in the assay on HCT-116 colon, over 100 µM; in the assay on SR leukemia, over 45.5 µM; in the assay with M14 melanoma it was over 100 µM; in the assay with OVCAR-4 ovarian, over 100 µM; with MCF7 breast, over 100 µM. In addition, the TGI in the assay with DU-145 prostate, in the assay with SK-OV-3 ovarian, in the assay on SF-539 CNS and in the assay on NCI-H460 lung was over 100 µM in each case.
On to `Cn1cc(C2=C(c3ccccc3[N+](=O)[O-])C(=O)NC2=O)c2ccccc21`, for which the GI50 is 8.64 µM in the assay on OVCAR-5 ovarian; 1.38 µM in the assay on HCT-116 colon; 2.33 µM in the assay on SR leukemia; 6.32 µM in the assay on M14 melanoma; 4.88 µM with OVCAR-4 ovarian; 4.05 µM in the assay on MCF7 breast. For the same molecule, the GI50 in the assay with DU-145 prostate was 6.13 µM; in the assay on SK-OV-3 ovarian, 4.79 µM; in the assay with SF-539 CNS it was 2.61 µM; in the assay on NCI-H460 lung it was 4.85 µM. Moreover, the TGI with OVCAR-5 ovarian is over 25 µM; with HCT-116 colon, over 25 µM; in the assay with SR leukemia it was 12.9 µM; in the assay on M14 melanoma, over 20.9 µM; in the assay on OVCAR-4 ovarian, 24.5 µM; with MCF7 breast, over 25 µM. Also, the TGI was over 25 µM with DU-145 prostate, over 25 µM in the assay on SK-OV-3 ovarian, 10.1 µM in the assay with SF-539 CNS and over 25 µM in the assay on NCI-H460 lung.
Consider `O=C1CC[C@H](N2C(=O)c3cccc4c(Cc5ccc(CN6CCOCC6)cc5)ccc2c34)C(=O)N1`, for which the GI50 in the assay with OVCAR-5 ovarian is over 100 µM; in the assay on HCT-116 colon, 33.6 µM; with SR leukemia it was 4.03 µM; in the assay with M14 melanoma, 62 µM; in the assay with OVCAR-4 ovarian it was 21.9 µM; in the assay on MCF7 breast, 23.7 µM. Also, the GI50 in the assay on DU-145 prostate is over 100 µM; in the assay with SK-OV-3 ovarian it was over 100 µM; in the assay with SF-539 CNS it was over 100 µM; with NCI-H460 lung it was 35.2 µM. The TGI in the assay with OVCAR-5 ovarian, in the assay with HCT-116 colon, with SR leukemia, in the assay with M14 melanoma, with OVCAR-4 ovarian and with MCF7 breast was over 100 µM each time. In addition, the TGI in the assay with DU-145 prostate, in the assay on SK-OV-3 ovarian, in the assay on SF-539 CNS and in the assay with NCI-H460 lung was over 100 µM throughout.
In the case of `COc1cc2nccc(Oc3ccc(NC(=O)NC4CC4)c(Cl)c3)c2cc1C(N)=O`, the GI50 was 47.4 µM in the assay with OVCAR-5 ovarian; 25.4 µM in the assay with HCT-116 colon; 30.5 µM with SR leukemia; 51 µM in the assay with M14 melanoma; 12.2 µM with OVCAR-4 ovarian; 36.2 µM in the assay with MCF7 breast. The GI50 in the assay on DU-145 prostate is 21.6 µM; in the assay on SK-OV-3 ovarian it was 17.5 µM; in the assay with SF-539 CNS, 0.536 µM; in the assay with NCI-H460 lung, 39.9 µM. Further, the TGI with OVCAR-5 ovarian, with HCT-116 colon, in the assay on SR leukemia, in the assay with M14 melanoma, in the assay with OVCAR-4 ovarian and with MCF7 breast was over 100 µM in each case. The TGI was over 100 µM in the assay on DU-145 prostate, 94.6 µM in the assay on SK-OV-3 ovarian, 40 µM with SF-539 CNS and over 100 µM in the assay on NCI-H460 lung.
Consider `COc1ccc(C(=O)Nc2ncc(Cc3cccc(Cl)c3)s2)cc1OC`, for which the GI50 was 1.25 µM with OVCAR-5 ovarian; 0.0769 µM with HCT-116 colon; 0.164 µM in the assay on SR leukemia; 0.0371 µM with M14 melanoma; 3.68 µM in the assay on OVCAR-4 ovarian; 0.36 µM in the assay with MCF7 breast. Moreover, the GI50 in the assay on DU-145 prostate was 1.88 µM; in the assay on SK-OV-3 ovarian it was 3.59 µM; with SF-539 CNS it was 0.312 µM; in the assay on NCI-H460 lung it was 0.0611 µM. Further, the TGI in the assay on OVCAR-5 ovarian, in the assay on HCT-116 colon, in the assay on SR leukemia, with M14 melanoma, in the assay on OVCAR-4 ovarian and with MCF7 breast was over 100 µM in each case. Moreover, the TGI with DU-145 prostate was over 100 µM; in the assay with SK-OV-3 ovarian it was over 100 µM; in the assay on SF-539 CNS it was 2.5 µM; in the assay with NCI-H460 lung, over 100 µM.
As for `O=C(/C=C/c1ccco1)c1cc(F)c(Cl)cc1Cl`, the GI50 in the assay on OVCAR-5 ovarian is 22.5 µM; in the assay with HCT-116 colon it was 14.9 µM; in the assay with SR leukemia, 23 µM; in the assay with M14 melanoma, 19.5 µM; with OVCAR-4 ovarian, 22 µM; with MCF7 breast it was 14.1 µM. In addition, the GI50 was 19.9 µM in the assay with DU-145 prostate, 24.5 µM in the assay with SK-OV-3 ovarian, 20 µM in the assay with SF-539 CNS and 24.2 µM in the assay with NCI-H460 lung. Besides, the TGI with OVCAR-5 ovarian was 48.9 µM; in the assay on HCT-116 colon, 31.6 µM; with SR leukemia, over 100 µM; in the assay on M14 melanoma it was 38.4 µM; in the assay on OVCAR-4 ovarian, 72.3 µM; in the assay with MCF7 breast, 63 µM. Also, the TGI in the assay on DU-145 prostate amounted to 44.1 µM; in the assay with SK-OV-3 ovarian it was 80.1 µM; with SF-539 CNS it was 38.1 µM; with NCI-H460 lung it was 72.4 µM.
